# According to patent US6943183B2 (Pfizer Inc, priority 2000, dated 2005):
# Target: T1, SF9 affinity purified rat FPT (Rattus norvegicus, UniProt Q02293+Q04631)
# T1 construct: made in house; host or cells: Sf9 insect cells
# Assay: PFT (FPT) inhibitory activity assay, radiolabeled farnesyl pyrophosphate and biotinyl peptide, streptavidin beads
# Type: biochemical
# Settings: HEPES buffer pH 7.4, 30° C., 30 minutes; read-out: FTase IC50
# Method: The PFT or FPT inhibitory activity of compounds of the present invention were assayed in HEPES buffer (pH 7.4) containing 5 mM potassium phosphate and 20 μM ZnCl2. The solution also contained 5 mM DTT (dithiothreitol), 5 mM MgCl2, and 0.1% PEG 8000. Assays were performed in 96 well plates (Wallec) and employed solutions composed of varying concentrations of a compound of the present invention in 10% DMSO (dimethylsulfoxide). […] After incubation at 30° C. for 30 minutes, the reaction was terminated by diluting the reaction 2.5-fold with a stop buffer containing 1.5 M magnesium acetate, 0.2 M H3PO4, 0.5% BSA (bovine serum albumin), and strepavidin beads (Amersham) at a concentration of 1.3 mg/mL. […] The assay was also carried out without 5 mM potassium phosphate.
row,Compound,IC50 [nM]
1,"O=C1CCCc2c1ccc(O[C@H](Cn1ccnc1)c1ccccc1)c2CCc1ccccn1 [Compound 24, 6-((1S)-2-Imidazolyl-1-phenylethoxy)-5-(2-(2-pyridyl)ethyl)-2,3,4-trihydronaphthalen-1-one]",0.4
2,"O=C1CCCc2c1ccc(O[C@H](Cn1ccnc1)c1ccccc1)c2CCc1cccc[n+]1[O-] [Compound 25, 6-((1S)-2-Imidazolyl-1-phenylethoxy)-5-[2-(1-oxy(2-pyridyl))ethyl]-2,3,4-trihydronaphthalen-1-one]",5
3,"O=C1CCCc2c1ccc(O[C@H](Cn1ccnc1)c1ccccc1)c2CCc1ccncc1 [Compound 26, 6-((1S)-2-Imidazolyl-1-phenylethoxy)-5-(2-(4-pyridyl)ethyl)-2,3,4-trihydronaphthalen-1-one]",2
4,O=C1CCCc2c1ccc(O[C@H](Cn1ccnc1)c1ccccc1)c2CCc1cc[n+]([O-])cc1 [Compound 26a],5
5,"O=C1CCCc2c1ccc(O[C@H](Cn1ccnc1)c1ccccc1)c2CCc1cccnc1 [Compound 26b, (S)-6-(-2-imidazol-1-yl-phenyl-ethoxy)-5-(2-pyridin-3-yl-ethyl)-3,4-dihydro-2H-naphthalen-1-one]",0.85
6,"O=C1CCCc2c1ccc(O[C@H](Cn1ccnc1)c1ccccc1)c2CCc1cncc2ccccc12 [Compound 26c, (S)-6-(-2-Imidazol-1-yl-1-phenyl-ethoxy)-5-(2-isoquinolin-4-yl-ethyl)-3,4-dihydro-2H-naphthalen-1-one]",0.2
7,"COC(=O)c1ccc(CCc2c(O[C@H](Cn3ccnc3)c3ccccc3)ccc3c2CCCC3=O)cc1 [Compound 27, Methyl 4-(2-[2-((1S)-2-imidazolyl-1-phenylethoxy)-5-oxo-6,7,8-trihydronaphthyl]ethyl}benzoate]",10
8,"COC(=O)c1ccc(CCc2c(O[C@H](Cn3ccnc3)c3ccccc3)ccc3c2CCCC3=O)cc1 [Compound 28, Methyl 4-{2-[2-((1S)-2-imidazolyl-1-phenylethoxy)-5-oxo-6,7,8-trihydronaphthyl]ethyl}benzoate]",13
9,CNC(=O)c1ccc(CCc2c(O[C@H](Cn3ccnc3)c3ccccc3)ccc3c2CCCC3=O)cc1 [Compound 29],0.1
10,"O=C1CCCc2c1ccc(O[C@H](Cn1ccnc1)c1ccccc1)c2CCc1ccc(F)cc1 [Compound 30, 6-((1S)-2-Imidazolyl-1-phenylethoxy)-5-[2-(4-fluorophenyl)ethyl]-2,3,4-trihydronaphthalen-1-one]",0.2
11,"COC(=O)CCc1c(O[C@H](Cn2ccnc2)c2ccccc2)ccc2c1CCCC2=O [Compound 31, Methyl 3-[2-((1S)-2-imidazolyl-1-phenylethoxy)-5-oxo-6,7,8-trihydronaphthyl]propanoate]",10
12,"O=C(O)CCc1c(O[C@H](Cn2ccnc2)c2ccccc2)ccc2c1CCCC2=O [Compound 32, 3-[2-((1S)-2-Imidazolyl-1-phenylethoxy)-5-oxo-6,7,8-trihydronaphthyl]propanoic acid]",25
13,"N#Cc1ccc(Cc2c(O[C@H](Cn3ccnc3)c3ccccc3)ccc3c2CCCC3=O)cc1 [Compound 33, 4-{[2-((1S)-2-Imidazolyl-1-phenylethoxy)-5-oxo-6,7,8-trihydronaphthyl]methyl}benzenecarbonitrile]",4
14,"O=C1CCCc2c1ccc(O[C@H](Cn1ccnc1)c1ccccc1)c2Br [Compound 34, 6-((1S)-2-Imidazolyl-1-phenylethoxy)-5-bromo-2,3,4-trihydronaphthalen-1-one]",25
15,O=C1CCCc2c1ccc(O[C@H](Cn1ccnc1)c1ccccc1)c2-c1ccsc1 [Compound 35],15
16,O=C1CCCc2c1ccc(O[C@H](Cn1ccnc1)c1ccccc1)c2-c1ccoc1 [Compound 36],7
17,"Nc1c(O[C@H](Cn2ccnc2)c2ccccc2)ccc2c1CCCC2=O [Compound 37a, 5-Amino-6-((S)-2-imidazol-1-yl-1-phenyl-ethoxy)-3,4-dihydro-2H-naphthalen-1-one]",14
18,"O=C1CCCc2c1ccc(O[C@H](Cn1ccnc1)c1ccccc1)c2NS(=O)(=O)c1ccccc1 [Compound 38, N-[2-((S)-2-Imidazol-1-yl-1-phenyl-ethoxy)-5-oxo-5,6,7,8-tetrahydro-naphthalen-1-yl]-benzenesulfonamide]",31

row,Compound,IC50 [nM]
1,"O=C1CCCc2c1ccc(O[C@H](Cn1ccnc1)c1ccccc1)c2NS(=O)(=O)Cc1ccccc1 [Compound 39, N-[2-((S)-2-Imidazol-1-yl-1-phenyl-ethoxy)-5-oxo-5,6,7,8-tetrahydro-naphthalen-1-yl]-1-phenyl-methanesulfonamide]",1
2,"O=C(Cc1ccccn1)Nc1c(O[C@H](Cn2ccnc2)c2ccccc2)ccc2c1CCCC2=O [Compound 39a, N-[2-((S)-2-Imidazol-1-yl-1-phenyl-ethoxy)-5-oxo-5,6,7,8-tetrahydro-naphthalen-1-yl]-2-pyridin-2-yl-acetamide]",38
3,"O=C(Nc1c(O[C@H](Cn2ccnc2)c2ccccc2)ccc2c1CCCC2=O)c1ccccn1 [Compound 40, Pyridine-2-carboxylic acid [2-((S)-2-imidazol-1-yl-1-phenyl-ethoxy)-5-oxo-5,6,7,8-tetrahydro-naphthalen-1-yl]-amide]",7.3
4,"O=C1CCCc2c1ccc(O[C@H](Cn1ccnc1)c1ccccc1)c2NC(=O)c1nccc2ccccc12 [Compound 40a, Isoquinoline-1-carboxylic acid [2-((S)-2-imidazol-1-yl-1-phenyl-ethoxy)-5-oxo-5,6,7,8-tetrahydro-naphthalen-1-yl]-amide]",0.65
5,"O=C(Nc1c(O[C@H](Cn2ccnc2)c2ccccc2)ccc2c1CCCC2=O)c1cc2ccccc2cn1 [Compound 40b, Isoquinioline-3-carboxylic acid [2-((S)-2-imidazol-1-yl-1-phenyl-ethoxy)-5-oxo-5,6,7,8-tetrahydro-naphthalen-1-yl]-amide]",6
6,O=C(Nc1c(O[C@H](Cn2ccnc2)c2ccccc2)ccc2c1CCCC2=O)c1cnccn1 [Compound 40c],1.2
7,"O=C1CCCc2c1ccc(O[C@H](Cn1ccnc1)c1ccccc1)c2NC(=O)c1ncoc1-c1ccc(Cl)cc1 [Compound 40d, 5-(4-Chloro-phenyl)-oxazole-4-carboxylic acid [2-((S)-2-imidazol-1-yl-1-phenyl-ethoxy)-5-oxo-5,6,7,8-tetrahydro-naphthalen-1-yl]-amide]",9
8,"O=C(Nc1c(O[C@H](Cn2ccnc2)c2ccccc2)ccc2c1CCCC2=O)c1cccnc1Cl [Compound 40e, N-[2-((S)-2-Imidazol-1-yl-1-phenyl-ethoxy)-5-oxo-5,6,7,8-tetrahydro-naphthalen-1-yl]-2-chloro-nicotinamide]",2.5
9,"O=C(Nc1c(O[C@H](Cn2ccnc2)c2ccccc2)ccc2c1CCCC2=O)c1cccnc1Oc1ccccc1 [Compound 40f, N-[2-((S)-2-Imidazol-1-yl-1-phenyl-ethoxy)-5-oxo-5,6,7,8-tetrahydro-naphthalen-4-1-yl]-2-phenoxy-nicotinamide]",13
10,"O=C1CCCc2c1ccc(O[C@H](Cn1ccnc1)c1ccccc1)c2NC(=O)c1cccc2cccnc12 [Compound 40g, Quinoline-8-carboxylic acid [2-((S)-2-imidazol-1-yl-1-phenyl-ethoxy)-5-oxo-5,6,7,8-tetrahydro-naphthalen-1-yl]-amide]",0.8
11,"CC(C)(C)OC(=O)NCc1c(O[C@H](Cn2ccnc2)c2ccccc2)ccc2c1CCCC2=O [Compound 41, [2-((S)-2-Imidazol-1-yl-1-phenyl-ethoxy)-5-oxo-5,6,7,8-tetrahydro-naphthalen-1-ylmethyl]-carbamic acid tert-butyl ester]",14
12,"O=C1CCCc2c1ccc(O[C@H](Cn1ccnc1)c1ccccc1)c2CNS(=O)(=O)c1ccccc1 [Compound 42, N-[2-((S)-2-Imidazol-1-y-1-phenyl-71-ethoxy)-5-oxo-5,6,7,8-tetrahydro-naphthalen-1-ylmethyl]-benzenesulfonamide]",1.5
13,"COc1ccc(S(=O)(=O)NCc2c(O[C@H](Cn3ccnc3)c3ccccc3)ccc3c2CCCC3=O)cc1 [Compound 42a, N-[2-((S)-2-Imidazol-1-yl-1-phenyl-ethoxy)-5-oxo-5,6,7,8-tetrahydro-naphthalen-1-ylmethyl]-4-methoxy-benzenesulfonamide]",1.1
14,"O=C1CCCc2c1ccc(O[C@H](Cn1ccnc1)c1ccccc1)c2CNS(=O)(=O)c1ccc(F)cc1F [Compound 42b, 2,4-Difluoro-N-[2-((S)-2-imidazol-1-yl-1-phenyl-ethoxy)-5-oxo-5,6,7,8-tetrahydro-naphthalen-1-ylmethyl]-benzenesulfonamide; compound with trifluoro-acetic acid]",3.5
15,COC(=O)c1ccccc1S(=O)(=O)NCc1c(O[C@H](Cn2ccnc2)c2ccccc2)ccc2c1CCCC2=O [Compound 42c],3.5
16,"O=C1CCCc2c1ccc(O[C@H](Cn1ccnc1)c1ccccc1)c2CNS(=O)(=O)c1cc(Cl)sc1Cl [Compound 42d, 2,5-Dichloro-thiophene-3-sulfonic acid [2-((S)-2-imidazol-1-yl-1-phenyl-ethoxy)-5-oxo-5,6,7,8-tetrahydro-naphthalen-1-ylmethyl]-amide; compound with trifluoro-acetic acid]",2
17,"O=C1CCCc2c1ccc(O[C@H](Cn1ccnc1)c1ccccc1)c2CNS(=O)(=O)c1cccc(Cl)c1 [Compound 42e, 3-Chloro-N-[2-((S)-2-imidazol-1-yl-1-phenyl-ethoxy)-5-oxo-5,6,7,8-tetrahydro-naphthalen-1-ylmethyl]-benzenesulfonamide; compound with trifluoro-acetic acid]",1.5
